Reference: patent US20060069132A1, “Azolecarboxamide herbicides” (priority 2004, published 2006)

Experiments:
[1] = tested on: smallflower umbrella sedge; test: Test C flooded paddy test; assay type: in vivo, Cyperus difformis
Description: (§1) At the same time, plants selected from these crop and weed species and also winter barley (Hordeum vulgare L.), blackgrass (Alopecurus myosuroides Huds.), canarygrass (Phalaris minor Retz.), chickweed (Stellaria media (L.) Vill.), downy bromegrass (Bromus tectorum L.), green foxtail (Setaria viridis (L.) Beauv.), Italian ryegrass (Lolium multiflorum Lam.), wheat (Triticum aestivum L.), wild oat (Avenafatua L.) and windgrass (Apera spica-venti (L.) Beauv.) were treated with postemergence applications of some of the test chemicals formulated in the same manner. Plants ranged in height from 2 to 18 cm (1- to 4-leaf stage) for postemergence treatments. Plant species in the flooded paddy test consisted of rice (Oryza sativa), smallflower umbrella sedge (Cyperus difformis L.), ducksalad (Heteranthera limosa (Sw.) Willd.) and barnyardgrass (Echinochloa crus-galli (L.) Beauv.) grown to the 2-leaf stage for testing. Treated plants and controls were maintained in a greenhouse for 12 to 14 days, after which time all species were compared to controls and visually evaluated. Plant response ratings, summarized in Table C, are based on a scale of 0 to 100 where 0 is no effect and 100 is complete control. A dash (-) response means no test result.

[2] = tested on: corn; test: Test B pre-/postemergence herbicide test; assay type: in vivo, Zea mays
How it was run: (§2)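 Response was scored visually 13 to 15 days after treatment against untreated greenhouse controls, 0 meaning no effect and 100 complete control. Formulations (solvent mixture plus surfactant) went onto soil after planting, onto foliage of 1- to 4-leaf plants, and onto 2-leaf plants in a flooded paddy set including rice and barnyardgrass.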

[3] = tested on: pigweed; test: Test B pre-/postemergence herbicide test; assay type: in vivo, Amaranthus retroflexus
How it was run: as §2

[4] = tested on: large crabgrass; test: Test B pre-/postemergence herbicide test; assay type: in vivo, Digitaria sanguinalis
How it was run: as §2

[5] = tested on: wild oat; test: Test B postemergence herbicide test; assay type: in vivo, Avena fatua; conditions: scale 0 (no effect) to 100 (complete control)
How it was run: (§3)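 Treated at 2-leaf (paddy) or 1–4-leaf, 2–18 cm (postemergence); greenhouse 13–15 d; visual score vs control, 0 none to 100 complete control; dash = not tested.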

[6] = tested on: rice; test: Test C flooded paddy test; assay type: in vivo, Oryza sativa
Description: as §1

[7] = tested on: cocklebur; test: Test B pre-/postemergence herbicide test; assay type: in vivo, Xanthium strumarium
How it was run: (§4)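 Species tested were Echinochloa crus-galli, Ipomoea coccinea, Xanthium strumarium and Oryza sativa, treated both before emergence and at the 1- to 4-leaf stage; rice and barnyardgrass were also tested under flooding at 2 leaves. Greenhouse incubation lasted 13–15 days before visual 0–100 scoring.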

[8] = tested on: barnyardgrass; test: Test B flooded paddy test; assay type: in vivo, Echinochloa crus-galli; conditions: 1000 g ai/ha, visual rating, scale 0 to 100 (0 no effect, 100 complete control), 13 to 15 days
How it was run: (§5)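 Plants grow to 1- to 4-leaf stage (2–18 cm) for postemergence spraying, or to 2-leaf stage for the paddy test. Formulated compound is applied. Greenhouse holding lasts 13–15 days. Response is scored visually relative to controls, 0 no effect to 100 complete control; a dash means no result.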

[9] = tested on: barnyardgrass; test: Test C flooded paddy test; assay type: in vivo, Echinochloa crus-galli
Description: as §1

[10] = tested on: rice; test: Test B flooded paddy test; assay type: in vivo, Oryza sativa; conditions: 1000 g ai/ha, visual rating, scale 0 to 100 (0 no effect, 100 complete control), 13 to 15 days
How it was run: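 Postemergence plants were sprayed with formulated test chemicals at 2 to 18 cm height (1- to 4-leaf stage); paddy species were grown to the 2-leaf stage. After 13 to 15 days in a greenhouse, injury was rated visually against untreated controls on a 0–100 scale (0 = no effect, 100 = complete control).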

[11] = tested on: small flower umbrella sedge; test: Test B flooded paddy test; assay type: in vivo, Cyperus difformis; conditions: 1000 g ai/ha, visual rating, scale 0 to 100 (0 no effect, 100 complete control), 13 to 15 days
How it was run: as §5

[12] = tested on: ducksalad; test: Test B flooded paddy test; assay type: in vivo, Heteranthera limosa; conditions: 1000 g ai/ha, visual rating, scale 0 to 100 (0 no effect, 100 complete control), 13 to 15 days
How it was run: as §5

[13] = tested on: morningglory; test: Test B pre-/postemergence herbicide test; assay type: in vivo, Ipomoea coccinea; conditions: for Plant response rating, Morningglory: 500 g ai/ha
How it was run: as §4

[14] = tested on: blackgrass; test: Test B postemergence herbicide test; assay type: in vivo, Alopecurus myosuroides; conditions: scale 0 (no effect) to 100 (complete control)
How it was run: as §5

[15] = tested on: giant foxtail; test: Test B pre-/postemergence herbicide test; assay type: in vivo, Setaria faberi
How it was run: as §2

[16] = tested on: wheat; test: Test B postemergence herbicide test; assay type: in vivo, Triticum aestivum; set-up: key to Wheat plant response rating: 0 = no effect, 100 = complete control; conditions: scale 0 (no effect) to 100 (complete control)
How it was run: as §3

[17] = tested on: ducksalad; test: Test C flooded paddy test; assay type: in vivo, Heteranthera limosa
Description: as §1

[18] = tested on: velvetleaf; test: Test B pre-/postemergence herbicide test; assay type: in vivo, Abutilon theophrasti
How it was run: as §2

[19] = tested on: lambsquarters; test: Test B pre-/postemergence herbicide test; assay type: in vivo, Chenopodium album
How it was run: as §2

[20] = tested on: barnyardgrass; test: Test B pre-/postemergence herbicide test; assay type: in vivo, Echinochloa crus-galli; conditions: for Plant response rating, Barnyardgrass: 500 g ai/ha
How it was run: as §4

[21] = tested on: Surinam grass; test: Test B pre-/postemergence herbicide test; assay type: in vivo, Urochloa decumbens
How it was run: as §2

[22] = 62 g ai/ha, scale 0 to 100 (0 no effect, 100 complete control)
[23] = 125 g ai/ha, scale of 0 to 100, 0 is no effect, 100 is complete control
[24] = 250 g ai/ha, scale of 0 to 100, 0 is no effect, 100 is complete control
[25] = 500 g ai/ha, visual rating after 12 to 14 days, scale 0 to 100 (0 no effect, 100 complete control)
[26] = 500 g ai/ha, visual rating 0-100, 0 no effect, 100 complete control, preemergence
[27] = Postemergence, 500 g ai/ha, visual rating after 13 to 15 days, scale 0 (no effect) to 100 (complete control)
[28] = postemergence, 125 g ai/ha, visual rating, scale 0 (no effect) to 100 (complete control)
[29] = preemergence, 125 g ai/ha, 0 to 100 scale, 0 is no effect, 100 is complete control
[30] = Postemergence, 500 g ai/ha, visual rating after 13 to 15 days
[31] = postemergence, 125 g ai/ha, visual rating
[32] = visual rating 0-100, 0 no effect, 100 complete control, preemergence
[33] = Postemergence, visual rating after 13 to 15 days, scale 0 (no effect) to 100 (complete control)

## CON=C(C)c1cccc(NC(=O)c2cc(C(C)(C)C)nn2C)c1 [Compound 106]
[1]; [22]
  Sedge, Umbrella plant response rating: 0
[1]; [23]
  Sedge, Umbrella plant response rating: 0
[1]; [24]
  Sedge, Umbrella plant response rating: 30
[1]; [25]
  Plant response rating, Sedge, Umbrella: 80
[2]; [26]
  Plant response rating, Corn: 0
[2]; [27]
  Plant response rating, Corn: 10
[2]; [28]
  Corn plant response rating: 10
[2]; [29]
  Plant response rating, Corn: 0
[3]; [26]
  Plant response rating, Pigweed: 70
[3]; [27]
  Plant response rating, Pigweed: 20
[3]; [28]
  Pigweed plant response rating: 10
[3]; [29]
  Plant response rating, Pigweed: 0
[4]; [26]
  Plant response rating, Crabgrass, Large: 100
[4]; [27]
  Plant response rating, Crabgrass, Large: 10
[4]; [28]
  Crabgrass, Large plant response rating: 0
[4]; [29]
  Plant response rating, Crabgrass, Large: 90
[5]; [30]
  Plant response rating, Oat, Wild: 20
[5]; [31]
  Oat, Wild plant response rating: 10
[6]; [22]
  Rice plant response rating: 0
[6]; [23]
  Rice plant response rating: 0
[6]; [24]
  Rice plant response rating: 0
[6]; [25]
  Plant response rating, Rice: 20
[7]; [26]
  Plant response rating, Cocklebur: 0
[7]; [27]
  Plant response rating, Cocklebur: 50
[7]; [28]
  Cocklebur plant response rating: 20
[7]; [29]
  Plant response rating, Cocklebur: 0
[8]
  Barnyardgrass plant response rating: 0
[9]; [22]
  Barnyardgrass plant response rating: 0
[9]; [23]
  Barnyardgrass plant response rating: 0
[9]; [24]
  Barnyardgrass plant response rating: 0
[9]; [25]
  Plant response rating, Barnyardgrass: 0
[10]
  Rice plant response rating: 0
[11]
  Sedge, Umbrella plant response rating: 90
[12]
  Ducksalad plant response rating: 80
[13]; [32]
  Plant response rating, Morningglory: 10
[13]; [33]
  Plant response rating, Morningglory: 10
[13]; [28]
  Morningglory plant response rating: 10
[14]; [30]
  Plant response rating, Blackgrass: 0
[14]; [31]
  Blackgrass plant response rating: 0
[15]; [26]
  Plant response rating, Foxtail, Giant: 40
[15]; [27]
  Plant response rating, Foxtail, Giant: 0
[15]; [28]
  Foxtail, Giant plant response rating: 0
[15]; [29]
  Plant response rating, Foxtail, Giant: 10
[16]; [30]
  Plant response rating, Wheat: 0
[16]; [31]
  Wheat plant response rating: 0
[17]; [22]
  Ducksalad plant response rating: 0
[17]; [23]
  Ducksalad plant response rating: 0
[17]; [24]
  Ducksalad plant response rating: 0
[17]; [25]
  Plant response rating, Ducksalad: 0
[18]; [26]
  Plant response rating, Velvetleaf: 0
[18]; [27]
  Plant response rating, Velvetleaf: 20
[18]; [28]
  Velvetleaf plant response rating: 0
[18]; [29]
  Plant response rating, Velvetleaf: 0
[19]; [26]
  Plant response rating, Lambsquarters: 100
[19]; [27]
  Plant response rating, Lambsquarters: 90
[19]; [28]
  Lambsquarters plant response rating: 50
[19]; [29]
  Plant response rating, Lambsquarters: 0
[20]; [32]
  Plant response rating, Barnyardgrass: 70
[20]; [33]
  Plant response rating, Barnyardgrass: 0
[20]; [28]
  Barnyardgrass plant response rating: 0
[21]; [26]
  Plant response rating, Surinam Grass: 20
[21]; [27]
  Plant response rating, Surinam Grass: 10
[21]; [28]
  Surinam Grass plant response rating: 10
[21]; [29]
  Plant response rating, Surinam Grass: 0
